# According to PubChem BioAssay AID2060503 (Molecular Pharmacology Branch, DTP, NCI, 2025):
# System: 817829-284-R-J1-PDC complex spheroids, viability
# Test: Anticancer human tumor 817829-284-R-J1-PDC patient-derived colon adenocarcinoma cell line growth inhibition [GQUAD]
# Conditions: for IC50: curve of first compound; for viability, T/C: stronger effect = lower value
# Summary of the method: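 Multi-cell-type spheroids of tumor cells with HUVEC and mesenchymal stem cells, treated with drug combinations. Concentrations descend in half-log steps from near clinical Cmax, or from 10 microM where Cmax is unknown; viability read-out.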
# [1] = second compound 0.0316 µM, first compound 0.0316 µM
# [2] = second compound 0.0316 µM, first compound 0.1 µM
# [3] = second compound 0.0316 µM, first compound 0.316 µM
# [4] = second compound 0.0316 µM, first compound 1 µM
# [5] = second compound 0.0316 µM, first compound 3.16 µM
# [6] = second compound 0.0316 µM, first compound 10 µM
# [7] = second compound 0.1 µM, first compound 0.0316 µM
# [8] = second compound 0.1 µM, first compound 0.1 µM
# [9] = second compound 0.1 µM, first compound 0.316 µM
# [10] = second compound 0.1 µM, first compound 1 µM
# [11] = second compound 0.1 µM, first compound 3.16 µM
# [12] = second compound 0.1 µM, first compound 10 µM
# [13] = second compound 0.316 µM, first compound 0.0316 µM
# [14] = second compound 0.316 µM, first compound 0.1 µM
# [15] = second compound 0.316 µM, first compound 0.316 µM
# [16] = second compound 0.316 µM, first compound 1 µM
# [17] = second compound 0.316 µM, first compound 3.16 µM
# [18] = second compound 0.316 µM, first compound 10 µM
# [19] = second compound 1 µM, first compound 0.0316 µM
# [20] = second compound 1 µM, first compound 0.1 µM
# [21] = second compound 1 µM, first compound 0.316 µM
# [22] = second compound 1 µM, first compound 1 µM
# [23] = second compound 1 µM, first compound 3.16 µM
# [24] = second compound 1 µM, first compound 10 µM
# [25] = second compound 3.16 µM, first compound 0.0316 µM
# [26] = second compound 3.16 µM, first compound 0.1 µM
# [27] = second compound 3.16 µM, first compound 0.316 µM
# [28] = second compound 3.16 µM, first compound 1 µM
# [29] = second compound 3.16 µM, first compound 3.16 µM
# [30] = second compound 3.16 µM, first compound 10 µM
# [31] = second compound 10 µM, first compound 0.0316 µM
# [32] = second compound 10 µM, first compound 0.1 µM
# [33] = second compound 10 µM, first compound 0.316 µM
# [34] = second compound 10 µM, first compound 1 µM
# [35] = second compound 10 µM, first compound 3.16 µM
# [36] = second compound 10 µM, first compound 10 µM
# 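Note: spheroids exposed to agents for 7 days before readout.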
# 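Throughout, for viability, T/C: percent viability relative to DMSO vehicle control taken as 100%.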
structure (smiles),measurement,setting,value
CC1COCCN1c1cc(C2(S(C)(=N)=O)CC2)nc(-c2ccnc3[nH]ccc23)n1 (stereo unspecified) + Cc1cnc(CNC(=O)c2c(=O)c3ccc(N4CCCN(C)CC4)nc3n3c2sc2ccccc23)cn1,IC50,second compound 0.0316 µM,0.2 µM
same,IC50,second compound 0.1 µM,< 0.0316 µM
same,IC50,second compound 0.316 µM,< 0.0316 µM
same,IC50,second compound 1 µM,< 0.0316 µM
same,IC50,second compound 3.16 µM,< 0.0316 µM
same,IC50,second compound 10 µM,< 0.0316 µM
same,"viability, T/C",[1],82.8%
same,"viability, T/C",[2],71.1%
same,"viability, T/C",[3],36.1%
same,"viability, T/C",[4],15.2%
same,"viability, T/C",[5],12.5%
same,"viability, T/C",[6],10.4%
same,"viability, T/C",[7],47.3%
same,"viability, T/C",[8],37.9%
same,"viability, T/C",[9],24.1%
same,"viability, T/C",[10],14.4%
same,"viability, T/C",[11],11.4%
same,"viability, T/C",[12],8.15%
same,"viability, T/C",[13],29.1%
same,"viability, T/C",[14],29.6%
same,"viability, T/C",[15],22.2%
same,"viability, T/C",[16],16.5%
same,"viability, T/C",[17],12.6%
same,"viability, T/C",[18],9.19%
same,"viability, T/C",[19],29.2%
same,"viability, T/C",[20],27.2%
same,"viability, T/C",[21],21.3%
same,"viability, T/C",[22],17.1%
same,"viability, T/C",[23],10.8%
same,"viability, T/C",[24],8.91%
same,"viability, T/C",[25],21.5%
same,"viability, T/C",[26],23.8%
same,"viability, T/C",[27],22.3%
same,"viability, T/C",[28],15.2%
same,"viability, T/C",[29],12.8%
same,"viability, T/C",[30],8.2%
same,"viability, T/C",[31],0.17%
same,"viability, T/C",[32],0.16%
same,"viability, T/C",[33],0.21%
same,"viability, T/C",[34],0.24%
same,"viability, T/C",[35],0.23%
same,"viability, T/C",[36],0.24%
COc1ccc([C@@H](O)c2cc(-c3ncnc4cc(N5CCOCC5)ccc34)c(F)cc2Cl)nn1 + Cc1cnc(CNC(=O)c2c(=O)c3ccc(N4CCCN(C)CC4)nc3n3c2sc2ccccc23)cn1,IC50,second compound 0.0316 µM,0.239 µM
same,IC50,second compound 0.1 µM,< 0.0316 µM
same,IC50,second compound 0.316 µM,< 0.0316 µM
same,IC50,second compound 1 µM,< 0.0316 µM
same,IC50,second compound 3.16 µM,< 0.0316 µM
same,IC50,second compound 10 µM,< 0.0316 µM
same,"viability, T/C",[1],81.7%
same,"viability, T/C",[2],75.5%
same,"viability, T/C",[3],41%
same,"viability, T/C",[4],31.2%
same,"viability, T/C",[5],27.9%
same,"viability, T/C",[6],20.9%
same,"viability, T/C",[7],42%
same,"viability, T/C",[8],37.5%
same,"viability, T/C",[9],31.9%
same,"viability, T/C",[10],24.2%
same,"viability, T/C",[11],24.2%
same,"viability, T/C",[12],19.3%
same,"viability, T/C",[13],27.7%
same,"viability, T/C",[14],29.7%
same,"viability, T/C",[15],24%
same,"viability, T/C",[16],22%
same,"viability, T/C",[17],22.8%
same,"viability, T/C",[18],18%
same,"viability, T/C",[19],25.1%
same,"viability, T/C",[20],25.6%
same,"viability, T/C",[21],25.1%
same,"viability, T/C",[22],17.7%
same,"viability, T/C",[23],18.2%
same,"viability, T/C",[24],12.7%
same,"viability, T/C",[25],21.2%
same,"viability, T/C",[26],22.7%
same,"viability, T/C",[27],21.6%
same,"viability, T/C",[28],17%
same,"viability, T/C",[29],15%
same,"viability, T/C",[30],8.95%
same,"viability, T/C",[31],0.12%
same,"viability, T/C",[32],0.16%
same,"viability, T/C",[33],0.18%
same,"viability, T/C",[34],0.23%
same,"viability, T/C",[35],0.2%
same,"viability, T/C",[36],0.19%
O=C(c1cc(Cc2n[nH]c(=O)c3ccccc23)ccc1F)N1CCN(C(=O)C2CC2)CC1 + Cc1cnc(CNC(=O)c2c(=O)c3ccc(N4CCCN(C)CC4)nc3n3c2sc2ccccc23)cn1,IC50,second compound 0.0316 µM,1.08 µM
same,IC50,second compound 0.1 µM,< 0.0316 µM
same,IC50,second compound 0.316 µM,< 0.0316 µM
same,IC50,second compound 1 µM,< 0.0316 µM
same,IC50,second compound 3.16 µM,< 0.0316 µM
same,IC50,second compound 10 µM,< 0.0316 µM
same,"viability, T/C",[1],78.9%
same,"viability, T/C",[2],65.2%
same,"viability, T/C",[3],58.5%
same,"viability, T/C",[4],51.6%
same,"viability, T/C",[5],44.2%
same,"viability, T/C",[6],35.6%
same,"viability, T/C",[7],30.9%
same,"viability, T/C",[8],33.5%
same,"viability, T/C",[9],32.9%
same,"viability, T/C",[10],32.1%
same,"viability, T/C",[11],33.8%
same,"viability, T/C",[12],29.9%
same,"viability, T/C",[13],24.3%
same,"viability, T/C",[14],24.5%
same,"viability, T/C",[15],25.1%
same,"viability, T/C",[16],23.7%
same,"viability, T/C",[17],26.4%
same,"viability, T/C",[18],27.4%
same,"viability, T/C",[19],18.6%
same,"viability, T/C",[20],23.9%
same,"viability, T/C",[21],20.3%
same,"viability, T/C",[22],22.8%
same,"viability, T/C",[23],23.1%
same,"viability, T/C",[24],23.4%
same,"viability, T/C",[25],18.1%
same,"viability, T/C",[26],21%
same,"viability, T/C",[27],21.3%
same,"viability, T/C",[28],19%
same,"viability, T/C",[29],20%
same,"viability, T/C",[30],21.4%
same,"viability, T/C",[31],0.17%
same,"viability, T/C",[32],0.18%
same,"viability, T/C",[33],0.22%
same,"viability, T/C",[34],0.2%
same,"viability, T/C",[35],0.22%
same,"viability, T/C",[36],0.21%
